Earlier results on one compound are cited in patent publication US20190358212A1, “USES OF EGFR/HER2 INHIBITOR COMBINED WITH PYRIMIDINE-TYPE ANTI-METABOLIC DRUG” (Jiangsu Hengrui Medicine Co., Ltd., priority 2017, published 2019).

For series [1], the system named is HER2+ metastatic breast cancer. As to conditions: J Clin Oncol 33, 2015 (suppl; abstr e11596).
Series [2] concerns the target HER2 (Homo sapiens, UniProt P04626). The settings on record: CN102471312A.
Series [3] deals with EGFR (Homo sapiens, UniProt P00533). The settings on record: CN102471312A.
Chain of EGFR (P00533 25-1210): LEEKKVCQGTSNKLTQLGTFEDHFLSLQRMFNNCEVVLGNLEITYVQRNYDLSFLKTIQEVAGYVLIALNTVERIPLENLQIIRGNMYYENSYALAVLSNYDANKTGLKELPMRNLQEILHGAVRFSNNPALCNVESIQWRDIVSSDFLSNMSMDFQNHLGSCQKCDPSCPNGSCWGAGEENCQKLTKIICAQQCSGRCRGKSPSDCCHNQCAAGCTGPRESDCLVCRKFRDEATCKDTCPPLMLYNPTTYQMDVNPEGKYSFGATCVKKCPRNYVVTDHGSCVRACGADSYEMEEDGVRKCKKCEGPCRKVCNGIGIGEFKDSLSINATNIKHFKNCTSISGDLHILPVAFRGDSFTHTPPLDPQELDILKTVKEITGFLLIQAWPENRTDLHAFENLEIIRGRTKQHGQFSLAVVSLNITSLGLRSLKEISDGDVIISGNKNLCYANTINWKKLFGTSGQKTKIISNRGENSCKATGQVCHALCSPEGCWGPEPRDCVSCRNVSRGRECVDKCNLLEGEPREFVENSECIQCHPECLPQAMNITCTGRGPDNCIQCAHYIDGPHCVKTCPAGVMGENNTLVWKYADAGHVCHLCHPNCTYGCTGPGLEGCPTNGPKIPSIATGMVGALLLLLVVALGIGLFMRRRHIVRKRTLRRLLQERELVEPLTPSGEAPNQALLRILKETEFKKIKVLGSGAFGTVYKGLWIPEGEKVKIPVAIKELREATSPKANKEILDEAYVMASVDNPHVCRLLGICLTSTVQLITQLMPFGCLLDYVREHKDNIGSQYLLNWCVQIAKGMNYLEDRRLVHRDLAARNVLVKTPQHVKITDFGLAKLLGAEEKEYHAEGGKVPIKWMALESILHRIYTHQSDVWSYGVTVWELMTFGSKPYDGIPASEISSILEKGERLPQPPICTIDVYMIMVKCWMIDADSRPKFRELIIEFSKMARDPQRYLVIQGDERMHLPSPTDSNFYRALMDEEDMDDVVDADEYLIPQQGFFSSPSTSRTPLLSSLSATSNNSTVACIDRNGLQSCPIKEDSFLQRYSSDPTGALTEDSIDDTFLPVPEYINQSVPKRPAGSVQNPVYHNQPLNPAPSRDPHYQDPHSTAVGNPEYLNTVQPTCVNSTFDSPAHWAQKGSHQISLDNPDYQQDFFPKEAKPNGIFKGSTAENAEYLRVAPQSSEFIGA

Chain of HER2 (P04626 23-1255): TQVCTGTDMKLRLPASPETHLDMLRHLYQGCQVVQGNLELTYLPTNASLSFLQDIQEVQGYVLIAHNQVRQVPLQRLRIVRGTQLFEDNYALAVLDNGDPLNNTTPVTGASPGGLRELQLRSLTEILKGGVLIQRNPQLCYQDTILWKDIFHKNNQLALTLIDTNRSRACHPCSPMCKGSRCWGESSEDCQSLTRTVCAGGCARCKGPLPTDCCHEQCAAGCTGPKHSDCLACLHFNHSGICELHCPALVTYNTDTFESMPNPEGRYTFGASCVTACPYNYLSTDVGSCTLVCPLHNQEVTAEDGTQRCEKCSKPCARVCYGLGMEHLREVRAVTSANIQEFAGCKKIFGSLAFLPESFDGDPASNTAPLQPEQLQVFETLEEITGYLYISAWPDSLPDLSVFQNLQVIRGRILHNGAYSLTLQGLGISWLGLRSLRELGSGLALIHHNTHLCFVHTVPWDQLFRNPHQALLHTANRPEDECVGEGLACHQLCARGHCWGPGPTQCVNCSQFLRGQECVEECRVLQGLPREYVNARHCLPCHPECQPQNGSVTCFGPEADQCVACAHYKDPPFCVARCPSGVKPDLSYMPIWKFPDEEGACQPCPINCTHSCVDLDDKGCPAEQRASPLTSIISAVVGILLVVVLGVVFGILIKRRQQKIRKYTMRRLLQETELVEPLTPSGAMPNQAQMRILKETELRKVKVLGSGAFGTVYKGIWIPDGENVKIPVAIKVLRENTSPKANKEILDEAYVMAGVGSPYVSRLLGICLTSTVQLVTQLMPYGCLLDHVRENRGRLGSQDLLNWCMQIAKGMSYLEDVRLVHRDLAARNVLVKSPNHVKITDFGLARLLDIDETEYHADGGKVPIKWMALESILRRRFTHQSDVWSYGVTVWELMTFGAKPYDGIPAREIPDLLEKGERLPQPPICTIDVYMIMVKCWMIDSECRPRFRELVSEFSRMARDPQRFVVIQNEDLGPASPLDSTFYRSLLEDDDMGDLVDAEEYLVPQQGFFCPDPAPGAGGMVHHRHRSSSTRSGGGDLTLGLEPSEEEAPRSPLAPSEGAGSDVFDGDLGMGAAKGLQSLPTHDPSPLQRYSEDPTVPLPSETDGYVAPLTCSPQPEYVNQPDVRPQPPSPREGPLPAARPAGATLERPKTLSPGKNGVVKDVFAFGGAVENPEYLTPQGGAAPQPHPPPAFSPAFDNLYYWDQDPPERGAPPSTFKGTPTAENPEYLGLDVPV

Regarding `CCOc1cc2ncc(C#N)c(Nc3ccc(OCc4ccccn4)c(Cl)c3)c2cc1NC(=O)/C=C/[C@H]1CCCN1C` [Compound A, (E)-N-[4-[[3-chloro-4-(2-pyridylmethoxy)phenyl]amino]-3-cyano-7-ethoxy-6-quinolyl]-3-[(2R)-1-methylpyrrolidin-2-yl]prop-2-enamide], in series [1], the “effect on patients with HER2+ metastatic breast cancer” value is listed as “a certain effect”. Moreover, in series [2], the “inhibition effect on HER2” value is reported as “potent inhibition effect”. Moreover, the “inhibition effect on EGFR” value in series [3] is “potent inhibition effect”.
